Converted amounts (≈) assume the structure as drawn.
How the values were obtained:
[1] = system: MDA-MB-436; experiment: Antiproliferative activity against human MDA-MB-436 cells assessed as reduction in cell viability incubated for 72 hrs by MTT assay; assay type: functional, cell-based; settings: MDA-MB-436, 72 h
[2] = target: T1, Glutaminase kidney isoform, mitochondrial (Homo sapiens) (UniProt O94925)
T1 sequence (whole entry): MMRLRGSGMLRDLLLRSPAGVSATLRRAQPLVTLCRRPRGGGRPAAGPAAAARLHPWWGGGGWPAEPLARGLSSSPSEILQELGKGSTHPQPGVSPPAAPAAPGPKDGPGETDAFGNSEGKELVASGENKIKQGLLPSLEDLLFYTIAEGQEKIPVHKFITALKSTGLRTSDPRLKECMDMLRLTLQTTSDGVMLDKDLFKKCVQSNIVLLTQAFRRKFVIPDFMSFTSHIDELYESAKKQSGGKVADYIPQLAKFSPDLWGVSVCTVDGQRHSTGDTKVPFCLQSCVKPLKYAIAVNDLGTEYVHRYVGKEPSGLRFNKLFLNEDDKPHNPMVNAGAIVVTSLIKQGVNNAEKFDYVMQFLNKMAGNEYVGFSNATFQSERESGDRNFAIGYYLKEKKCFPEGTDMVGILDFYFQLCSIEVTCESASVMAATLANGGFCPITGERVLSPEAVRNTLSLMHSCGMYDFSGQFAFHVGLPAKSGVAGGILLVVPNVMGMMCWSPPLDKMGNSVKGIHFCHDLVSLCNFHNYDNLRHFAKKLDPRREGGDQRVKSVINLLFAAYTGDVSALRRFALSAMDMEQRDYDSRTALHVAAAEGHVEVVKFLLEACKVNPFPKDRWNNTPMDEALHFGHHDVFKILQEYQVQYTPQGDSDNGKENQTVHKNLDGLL
Description: Binding affinity to human GLS1 expressed in Escherichia coli strain BL21 (DE3) assessed as change in melting temperature by SYPRO orange dye based protein thermal shift assay

[3] = Distribution coefficient, logD of the compound at pH 7.4 by LC-MS based shake-flask method; assay type: physicochemical; settings: octanol/water
[4] = Intrinsic aqueous solubility of compound at pH 7.4 by LC-MS based shake-flask method; assay type: physicochemical; settings: read-out: Intrinsic_solubility
[5] = target: T2, Glutaminase kidney isoform, mitochondrial (Homo sapiens, UniProt O94925); experiment: Inhibition of recombinant human GLS1 expressed in Escherichia coli strain BL21 (DE3) preincubated for 10 mins before glutamine addition and measured after 60 mins by bovine liver glutamate dehydrogenase based coupled enzyme assay
T2 sequence (O94925 whole entry): T1 sequence (whole entry)

[6] = system: HCT-116; experiment: Antiproliferative activity against human HCT116 cells assessed as reduction in cell viability incubated for 72 hrs by MTT assay; assay type: functional, cell-based; settings: HCT-116, 72 h
[7] = Metabolic stability in human liver microsomes assessed as half life at 10 uM preincubated for 5 mins followed by NADPH addition by LC-MS/MS analysis; assay type: ADME, Microsome
[8] = system: HCT-116; experiment: Antitumor activity against human HCT-116 cells xenografted in BALB/c nude mouse assessed as tumor growth inhibition at 200 mg/kg, po administered twice daily measured after 28 days; assay type: functional; settings: time 28 day
[9] = AUC(0 to infinity) in Sprague-Dawley rat at 5 mg/kg, iv measured upto 72 hrs by LC-MS/MS analysis; assay type: ADME, organism-based; design: route intravenous, dose 5 mg/kg, time <=72; settings: in vivo, 72 h
[10] = Clearance in Sprague-Dawley rat at 5 mg/kg, iv measured upto 72 hrs by LC-MS/MS analysis; assay type: ADME, organism-based; settings: in vivo, 5 mg/kg, 72 h
[11] = AUC(0 to t) in Sprague-Dawley rat at 5 mg/kg, iv measured upto 72 hrs by LC-MS/MS analysis; assay type: ADME, organism-based; design: route intravenous, dose 5 mg/kg, time <=72; settings: in vivo
[12] = Metabolic stability in human liver microsomes assessed as clearance at 10 uM preincubated for 5 mins followed by NADPH addition by LC-MS/MS analysis; assay type: ADME, Microsome; settings: read-out: CLH
[13] = Cmax in Sprague-Dawley rat at 200 mg/kg, po measured upto 72 hrs by LC-MS/MS analysis; assay type: ADME, organism-based; design: route oral, dose 200 mg/kg, time <=72; settings: in vivo
[14] = Oral bioavailability in Sprague-Dawley rat at 200 mg/kg measured upto 72 hrs by LC-MS/MS analysis; assay type: ADME, organism-based; settings: in vivo
[15] = Metabolic stability in mouse plasma assessed as compound remaining after 2 hrs by LC-MS/MS analysis; assay type: ADME, cell-free; settings: read-out: Stability
[16] = Toxicity in BALB/c nude mouse xenografted with human HCT-116 cells assessed as tolerability at 200 mg/kg, po administered twice daily measured after 28 days; assay type: organism-based; settings: in vivo, 672 h, time 28 day
[17] = AUC(0 to t) in Sprague-Dawley rat at 200 mg/kg, po measured upto 72 hrs by LC-MS/MS analysis; assay type: ADME, organism-based; design: route oral, dose 200 mg/kg, time <=72; settings: in vivo
[18] = Apparent volume of distribution in Sprague-Dawley rat at 200 mg/kg, po measured upto 72 hrs by LC-MS/MS analysis; assay type: ADME, organism-based; settings: in vivo
[19] = Apparent volume of distribution in Sprague-Dawley rat at 5 mg/kg, iv measured upto 72 hrs by LC-MS/MS analysis; assay type: ADME, organism-based; settings: in vivo, read-out: Vz
[20] = Half life in Sprague-Dawley rat at 200 mg/kg, po measured upto 72 hrs by LC-MS/MS analysis; assay type: ADME, organism-based; settings: in vivo
[21] = AUC(0 to infinity) in Sprague-Dawley rat at 200 mg/kg, po measured upto 72 hrs by LC-MS/MS analysis; assay type: ADME, organism-based; design: route oral, dose 200 mg/kg, time <=72; settings: Sprague-Dawley, in vivo
[22] = fCmax in BALB/c nude mouse plasma xenografted with human HCT-116 cells at 200 mg/kg, po administered twice daily for 28 days; assay type: ADME, organism-based; settings: in vivo, 672 h, time 28 day
[23] = Clearance in Sprague-Dawley rat at 200 mg/kg, po measured upto 72 hrs by LC-MS/MS analysis; assay type: ADME, organism-based; settings: Sprague-Dawley, in vivo
[24] = Metabolic stability in human plasma assessed as compound remaining after 2 hrs by LC-MS/MS analysis; assay type: ADME, cell-free; settings: read-out: Stability
[25] = Toxicity in BALB/c nude mouse xenografted with human HCT-116 cells assessed as body weight loss at 200 mg/kg, po administered twice daily for 28 days and measured every 3 days; assay type: organism-based; settings: in vivo, 672 h, time 28 day
[26] = Cmax in BALB/c nude mouse plasma xenografted with human HCT-116 cells at 200 mg/kg, po administered twice daily for 28 days; assay type: ADME, organism-based; design: route oral, time 28 day, dose 200 mg/kg
[27] = Metabolic stability in mouse liver microsomes assessed as clearance at 10 uM preincubated for 5 mins followed by NADPH addition by LC-MS/MS analysis; assay type: ADME, Microsome; settings: read-out: CLH
[28] = Free plasma protein in mouse; assay type: ADME, cell-free
[29] = Half life in Sprague-Dawley rat at 5 mg/kg, iv measured upto 72 hrs by LC-MS/MS analysis; assay type: ADME, organism-based; settings: in vivo
[30] = Metabolic stability in mouse liver microsomes assessed as half life at 10 uM preincubated for 5 mins followed by NADPH addition by LC-MS/MS analysis; assay type: ADME, Microsome
[31] = system: HCT-116; experiment: Inhibition of colony formation in human HCT-116 cells incubated for 14 days by crystal violet staining based assay; assay type: functional, cell-based; settings: dose 0.1-2 µM, time 14.0 day

## O=C1Cc2cccc(c2)OCCC/C=C/CCCOc2cccc(c2)CC(=O)NC2=NN=C(CCCCC3=NN=C(N1)S3)S2
[1]
  IC50: 820 nM
[2]
  ΔTm: 16.7 °C
[3]; read-out: logD
  logD: 3.49
[4]
  solubility thermodynamic: 0.25 µg/mL (≈ 0.395 µM)
[5]
  IC50: 82 nM
[6]
  IC50: 510 nM

## O=C1Cc2ccccc2OCCCC/C=C/CCCCOc2cccc(c2)CC(=O)Nc2nnc(s2)CCCCc2ccc(nn2)N1
[1]
  IC50: 710 nM
[2]
  ΔTm: 17.7 °C
[3]; read-out: logD
  logD: 3.72
[4]
  solubility thermodynamic: 1.09 µg/mL (≈ 1.66 µM)
[5]
  IC50: 37 nM
[6]
  IC50: 380 nM

## O=C1Cc2ccc(cc2)OCCC/C=C/CCCOc2ccc(cc2)CC(=O)Nc2nnc(s2)CCCCc2nnc(s2)N1
[1]
  IC50: 38300 nM
[2]
  ΔTm: 0.19 °C
[3]; read-out: logD
  logD: 3.62
[4]
  solubility thermodynamic: 0.29 µg/mL (≈ 0.458 µM)
[5]
  IC50: 4700 nM
[6]
  IC50: 16200 nM

## O=C(Cc1cccc(OC(F)(F)F)c1)Nc1ccc(CCCCc2nnc(NC(=O)Cc3ccccn3)s2)nn1
[1]
  IC50: 430 nM
[7]
  half-life at 10 µM: 1.4 h
[8]
  TGI: 45%
[3]
  logD: 2.24
[9]
  AUC: 2431 ng·h/mL
[10]
  CL: 135 mL/min/kg
[11]
  AUC(0-t) at 72 h: 2380 ng·h/mL
[12]
  microsomal CLint at 10 µM: 9.7 µL/min/mg
[13]
  Cmax: 1720 ng/mL
[14]
  bioavailability: 19%
[15]
  remaining at 2 h: 72%
[16]
  Activity: Non-Toxic
[17]
  AUC(0-t) at 72 h: 18900 ng·h/mL
[18]
  Vz: 60.9 L/kg
[19]
  Vd: 26.1 L/kg
[20]
  half-life: 3.2 h
[21]
  AUC(0-inf): 18900 ng·h/mL
[22]
  fCmax: 0.31 µM
[23]
  CL/F: 187 mL/min/kg
[24]
  remaining at 2 h: 84%
[25]
  Activity: Non-Toxic
[26]
  Cmax: 3.01 µM
[27]
  microsomal CLint at 10 µM: 12.3 µL/min/mg
[28]
  fraction unbound: 0.103
[29]
  half-life: 3.7 h
[6]
  IC50: 110 nM
[30]
  half-life at 10 µM: 1.05 h

## O=C1Cc2ccc(cc2)OCCCC/C=C/CCCCOc2ccc(cc2)CC(=O)Nc2nnc(s2)CCCCc2nnc(s2)N1
[1]
  IC50: 2510 nM
[2]
  ΔTm: 12.9 °C
[3]; read-out: logD
  logD: 3.91
[4]
  solubility thermodynamic: 0.25 µg/mL (≈ 0.378 µM)
[5]
  IC50: 193 nM
[6]
  IC50: 1480 nM

## O=C1Cc2cccc(c2)OC/C=C/COc2cccc(c2)CC(=O)Nc2nnc(s2)CCCCc2ccc(nn2)N1
[1]
  IC50: 640 nM
[2]
  ΔTm: 17.2 °C
[3]; read-out: logD
  logD: 2.79
[31]
  inhibition: Dose-Dependent Effect
[4]
  solubility thermodynamic: 2.16 µg/mL (≈ 3.78 µM)
[5]
  IC50: 32 nM
[6]
  IC50: 260 nM

## O=C1CC/C=C/CCC(=O)Nc2cccc(c2)CC(=O)Nc2nnc(s2)CCCCc2ccc(nn2)NC(=O)Cc2cccc(c2)N1
[1]
  IC50: 840 nM
[2]
  ΔTm: 15.9 °C
[3]; read-out: logD
  logD: 2.53
[31]
  inhibition: Dose-Dependent Effect
[4]
  solubility thermodynamic: 2.34 µg/mL (≈ 3.58 µM)
[5]
  IC50: 75 nM
[6]
  IC50: 520 nM

## O=C1CCc2cccc(c2)OCCCC/C=C/CCCC(=O)Nc2nnc(s2)CCCCc2ccc(nn2)N1
[1]
  IC50: 510 nM
[2]
  ΔTm: 16.7 °C
[3]; read-out: logD
  logD: 4.29
[31]
  inhibition: Dose-Dependent Effect
[4]
  solubility thermodynamic: 1.84 µg/mL (≈ 3.35 µM)
[5]
  IC50: 25 nM
[6]
  IC50: 140 nM

## O=C1CCCC/C=C/CCCCOc2cccc(c2)CCC(=O)Nc2nnc(s2)CCCCc2ccc(nn2)N1
[1]
  IC50: 1820 nM
[2]
  ΔTm: 16.3 °C
[3]; read-out: logD
  logD: 3.89
[4]
  solubility thermodynamic: 1.97 µg/mL (≈ 3.5 µM)
[5]
  IC50: 123 nM
[6]
  IC50: 680 nM

Reference: ChEMBL document CHEMBL4831477, “Structure-Enabled Discovery of Novel Macrocyclic Inhibitors Targeting Glutaminase 1 Allosteric Binding Site” (J Med Chem, 2021)
